This note sets out measurements from patent publication US7541374B2, “Malononitrile compounds and use thereof” (Sumitomo Chemical Company, Limited, priority 2004, dated 2009).

Common to all, as to type: in vivo
The test system of one assay is Culex pipiens pallens. In words: Test Example 5: larvae in treated water, Culex pipiens pallens. Conditions: 24 h, read-out: rate of dead pests. On the procedure:
The formulation obtained according to Formulation Example 5 using the compound of the present invention (1), (2), (3), (4), (5), (6), (7), (8), (9), (10), (11), (12), (13), (14), (15), (16), (17), (18), (19), (20), (21), (22), (23), (25), (27), (28), (29), […], (31), (32), (33), (34), (35), (36), (37), (38), (39), (41), (44), (45), (46), (47) and (48) respectively, was diluted with water so that the active ingredient concentration came to 500 ppm to prepare a pesticidal solution for test.
0.7 ml of above pesticidal solution for test was added to 100 ml of ion exchanged water (active ingredient concentration: 3.5 ppm). Twenty last-instar larvae of Culex pipiens pallens were set free in the solution. After one day, the number of surviving and dead Culex pipiens pallens was examined and the rate of dead pests was calculated.

The test system of another assay is Musca domestica. In words: Test Example 3: treated filter paper with sucrose bait, Musca domestica. Conditions: read-out: rate of dead pests. On the procedure:
The formulation obtained according to Formulation Example 5 using the compound of the present invention (2), (3), (4), (6), (7), (8), (11), (12), (13), (15), (16), (19), (20), (21), (22), (28), (29), (30), (31), (32), (33), (34), (36), (37), (38) and (39) respectively, was diluted with water so that the active ingredient concentration came to 500 ppm to prepare a pesticidal solution for test.
On the bottom of a polyethylene cup having a diameter of 5.5 cm, a filter paper having the same diameter was laid, and 0.7 ml of the above pesticidal solution for test was added dropwise on the filter paper, followed by putting 30 mg of sucrose on it uniformly as a bait. Ten female Musca domestica imagoes were set free in the polyethylene cup and covered it with a lid. After 24 hours, the number of surviving and dead Musca domestica was examined and the rate of dead pests was calculated.

The subject of a further assay is Blattella germanica. The experiment in a line: Test Example 4: treated filter paper with sucrose bait, Blattella germanica. Particulars: 144 h, read-out: rate of dead pests. On the procedure: The formulation obtained according to Formulation Example 5 using the compound of the present invention (2), (3), (4), (6), (7), (8), (9), (11), (12), (13), (15), (16), (18), (19), (20), (21), (22), (27), (28), (29), (30), (31), (32), (33), (34), (35), (36), (37), (38), (43) and […] respectively, was diluted with water so that the active ingredient concentration came to 500 ppm to prepare a pesticidal solution for test.
On the bottom of a polyethylene cup having a diameter of 5.5 cm, a filter paper having the same diameter was laid, and 0.7 ml of the above pesticidal solution for test was added dropwise on the filter paper, followed by putting 30 mg of sucrose on it uniformly as a bait. Two male Blattella germanica imagoes were set free in the polyethylene cup and covered it with a lid. After 6 days, the number of surviving and dead Blattella germanica was examined and the rate of dead pests was calculated.

The mark [1] stands for this setting: active ingredient concentration 3.5 ppm in water, twenty last-instar larvae of Culex pipiens pallens, after one day.
Setting [2] is: 500 ppm, 0.7 ml on filter paper, ten female Musca domestica imagoes, after 24 hours.
Where [3] appears, read: 500 ppm, 0.7 ml on filter paper, two male Blattella germanica imagoes, after 6 days.

Like-named read-outs stand apart in the source and are kept apart here.

For the molecule `N#CC(C#N)(CCC(F)(F)F)Cn1cccn1` [compound of the present invention (1), (1H-pyrazole-1-yl methyl) (3,3,3-trifluoropropyl) malononitrile], the pest or weed control at 3.5 ppm in the assay on Culex pipiens pallens (setting [1]) was ≥ 95%. Consider `CC(C)c1ccn(CC(C#N)(C#N)CCC(F)(F)F)n1` [compound of the present invention (2), [(3-i-propyl-1H-pyrazole-1-yl)methyl](3,3,3-trifluoropropyl) malononitrile], for which the pest or weed control at 500 ppm is ≥ 90% in the assay with Musca domestica (setting [2]) and 100% in the assay on Blattella germanica (setting [3]). Also, the pest or weed control at 3.5 ppm in the assay with Culex pipiens pallens (setting [1]) is ≥ 95%. For the molecule `CC(C)(C)c1ccn(CC(C#N)(C#N)CCC(F)(F)F)n1` [compound of the present invention (3), [(3-t-butyl-1H-pyrazole-1-yl)methyl](3,3,3-trifluoropropyl) malononitrile], the pest or weed control at 500 ppm is ≥ 90% in the assay on Musca domestica (setting [2]) and 100% in the assay on Blattella germanica (setting [3]). In addition, in the assay with Culex pipiens pallens (setting [1]), the pest or weed control at 3.5 ppm is ≥ 95%.

In the case of `C=CCC(C#N)(C#N)Cn1ccc(C(C)(C)C)n1` [compound of the present invention (4), allyl [(3-t-butyl-1H-pyrazole-1-yl)methyl]malononitrile], the values for the pest or weed control at 500 ppm in the assay with Musca domestica (setting [2]) and in the assay on Blattella germanica (setting [3]) were ≥ 90% and 100%, respectively. The pest or weed control at 3.5 ppm in the assay on Culex pipiens pallens (setting [1]) was ≥ 95%. For the molecule `CC1(C)CCc2cn(CC(C#N)(C#N)CCC(F)(F)F)nc21` [compound of the present invention (5), [(6,6-dimethyl-5,6-dihydro-cyclopenta[c]pyrazole-2(4H)-yl)methyl](3,3,3-trifluoropropyl) malononitrile], the pest or weed control at 3.5 ppm with Culex pipiens pallens (setting [1]) is ≥ 95%. Take `N#CC(C#N)(CCC(F)(F)F)Cn1ccc(C(F)(F)F)n1` [compound of the present invention (6), {[3-(trifluoromethyl)-1H-pyrazole-1-yl]methyl}(3,3,3-trifluoropropyl) malononitrile]: the pest or weed control at 500 ppm was ≥ 90% with Musca domestica (setting [2]) and 100% in the assay on Blattella germanica (setting [3]). Besides, the pest or weed control at 3.5 ppm with Culex pipiens pallens (setting [1]) is ≥ 95%.

For `C=CCC(C#N)(C#N)Cn1ccc(C(F)(F)F)n1` [compound of the present invention (7), allyl {[3-(trifluoromethyl)-1H-pyrazole-1-yl]methyl}malononitrile], the pest or weed control at 500 ppm in the assay with Musca domestica (setting [2]) is ≥ 90%; with Blattella germanica (setting [3]) it was 100%. In addition, the pest or weed control at 3.5 ppm in the assay with Culex pipiens pallens (setting [1]) was ≥ 95%. As for `N#CC(C#N)(CCC(F)(F)F)Cn1ccc(C=O)n1` [compound of the present invention (8), [(3-formyl-1H-pyrazole-1-yl)methyl](3,3,3-trifluoropropyl) malononitrile], the pest or weed control at 500 ppm was ≥ 90% with Musca domestica (Musca domestica, 24 h) and 100% in the assay on Blattella germanica (Blattella germanica). The pest or weed control at 3.5 ppm in the assay with Culex pipiens pallens (Culex pipiens) is ≥ 95%. As for `N#Cc1ccn(CC(C#N)(C#N)CCC(F)(F)F)n1` [compound of the present invention (9), [(3-cyano-1H-pyrazole-1-yl)methyl](3,3,3-trifluoropropyl) malononitrile], the pest or weed control at 500 ppm in the assay on Blattella germanica (setting [3]) came to 100%. Moreover, in the assay on Culex pipiens pallens (setting [1]), the pest or weed control at 3.5 ppm was ≥ 95%. Consider `N#CC(C#N)(CCC(F)(F)F)Cn1ccc(-c2ccccc2)n1` [compound of the present invention (10), [(3-phenyl-1H-pyrazole-1-yl)methyl](3,3,3-trifluoropropyl)malononitrile], for which, in the assay with Culex pipiens pallens (setting [1]), the pest or weed control at 3.5 ppm was ≥ 95%. As to `C=CCC(C#N)(C#N)Cn1cc(Br)c(C(C)(C)C)n1` [compound of the present invention (14), allyl [(4-bromo-3-t-butyl-1H-pyrazole-1-yl)methyl]malononitrile], the pest or weed control at 3.5 ppm with Culex pipiens pallens (setting [1]) is ≥ 95%.

For `Cc1cc(C)n(CC(C#N)(C#N)CCC(F)(F)F)n1` [compound of the present invention (17)], the pest or weed control at 3.5 ppm in the assay on Culex pipiens pallens (setting [1]) is ≥ 95%. As for `Cc1cnn(CC(C#N)(C#N)CCC(F)(F)F)c1` [compound of the present invention (18)], the pest or weed control at 500 ppm in the assay on Blattella germanica (setting [3]) stood at 100%. Also, the pest or weed control at 3.5 ppm in the assay with Culex pipiens pallens (setting [1]) is ≥ 95%. Turning to `COC(=O)c1cnn(CC(C#N)(C#N)CCC(F)(F)F)c1` [compound of the present invention (23), [{4-(methoxycarbonyl)-1H-pyrazole-1-yl}methyl](3,3,3-trifluoropropyl) malononitrile], the pest or weed control at 3.5 ppm in the assay with Culex pipiens pallens (setting [1]) was ≥ 95%. Same read-out and setting: under `CCOC(=O)c1cn(CC(C#N)(C#N)CCC(F)(F)F)nc1C(F)(F)F` [compound of the present invention (25), {[4-ethoxycarbonyl-3-(trifluoromethyl)-pyrazole-1H-yl]methyl}(3,3,3-trifluoropropyl) malononitrile] stands ≥ 95%.

On to `N#CC(C#N)(CCC(F)(F)F)Cn1cncn1` [compound of the present invention (27), [(1H-1,2,4-triazole-1-yl)methyl](3,3,3-trifluoropropyl) malononitrile], for which the pest or weed control at 500 ppm in the assay with Blattella germanica (setting [3]) amounted to 100%. Moreover, in the assay with Culex pipiens pallens (setting [1]), the pest or weed control at 3.5 ppm is ≥ 95%. For the molecule `CCC(C)(C)c1ncn(CC(C#N)(C#N)CCC(F)(F)F)n1` [compound of the present invention (30), {[3-(1,1-dimethylpropyl)-1H-1,2,4-triazole-1-yl]methyl}(3,3,3-trifluoropropyl) malononitrile], the pest or weed control at 500 ppm was ≥ 90% with Musca domestica (setting [2]) and 100% in the assay with Blattella germanica (setting [3]). Regarding `C=CCC(C#N)(C#N)Cn1cnc(C(F)(F)C(F)(F)F)n1` [compound of the present invention (35), allyl {[3-(pentafluoroethyl)-1H-1,2,4-triazole 1-yl]methyl}malononitrile], in the assay on Blattella germanica (setting [3]), the pest or weed control at 500 ppm was 100%. The pest or weed control at 3.5 ppm in the assay on Culex pipiens pallens (setting [1]) is ≥ 95%.

On to `N#Cc1cn(CC(C#N)(C#N)CCC(F)(F)F)c2ccccc12` [compound of the present invention (39), [{3-cyano-1H-indole-1-yl}methyl] (3,3,3-trifluoropropyl) malononitrile], for which the pest or weed control at 500 ppm in the assay on Musca domestica (setting [2]) is ≥ 90%. Besides, the pest or weed control at 3.5 ppm with Culex pipiens pallens (setting [1]) is ≥ 95%. As for `N#CC(C#N)(CCC(F)(F)F)Cn1cc(C(=O)C(F)(F)F)c2ccccc21` [compound of the present invention (41), [{3-(trifluoroacetyl)-1H-indole-1-yl}methyl](3,3,3-trifluoropropyl) malononitrile], the pest or weed control at 3.5 ppm in the assay on Culex pipiens pallens (Culex pipiens) is ≥ 95%. Take `N#CC(C#N)(CCC(F)(F)F)Cn1cc(SC(F)(Cl)Cl)cn1` [compound of the present invention (43), [(4-{(dichlorofluoromethyl)thio}-1H-pyrazole-1-yl)methyl](3,3,3-trifluoropropyl)malononitrile]: the pest or weed control at 500 ppm in the assay with Blattella germanica (setting [3]) is 100%. With `N#CC(C#N)(CCC(F)(F)F)Cn1cc(SC(F)(Cl)Cl)c2ccccc21` [compound of the present invention (44), [(3-{[dichlorofluoromethyl]thio}-1H-indole-1-yl)methyl](3,3,3-trifluoropropyl) malononitrile], the pest or weed control at 3.5 ppm with Culex pipiens pallens (setting [1]) is ≥ 95%. In the case of `N#Cc1cn(CC(C#N)(C#N)CCC(F)(F)F)cc1C(F)(F)F` [compound of the present invention (46), [(3-cyano-4-trifluoromethyl-1H-pyrole-1-yl)methyl](3,3,3-trifluoropropyl) malononitrile], the pest or weed control at 3.5 ppm with Culex pipiens pallens (setting [1]) was ≥ 95%. Same read-out and setting: under `CCOC(=O)c1cn(CC(C#N)(C#N)CCC(F)(F)F)cc1C(F)(F)F` [compound of the present invention (47), [(3-ethoxycarbonyl-4-trifluoromethyl-1H-pyrole-1-yl)methyl](3,3,3-trifluoropropyl)malononitrile] stands ≥ 95%. The same measure, in the same setting: then `N#Cc1ccn(CC(C#N)(C#N)CCC(F)(F)F)c1` [compound of the present invention (48), [(3-cyano-1H-pyrole-1-yl)methyl] (3,3,3-trifluoropropyl) malononitrile], with ≥ 95%.
